Results published in patent US20190015423A1, “REGULATION OF GENE EXPRESSION BY MODULATING PRIMARY CILIA LENGTH” (THE TRUSTEES OF COLUMBIA UNIVERSITY IN THE CITY OF NEW YORK, priority 2016, published 2019).
Entries after “also recorded” stand apart in the source; their conditions may differ. Counter-ions that a name gives are not always drawn.

Columns and labels:
MLO-Y4 osteocytes [1] = test: Oscillatory fluid flow-induced mRNA expression (COX-2, OPN, AC6), flow vs no flow; assay type: cell-based; settings: for COX-2 mRNA response to flow (in words) / OPN mRNA response to flow (in words): fenoldopam 16 hours, flow 1 hour, relative to GAPDH
Adenylyl cyclase = Adenylyl cyclase activity: forskolin stimulated cAMP ELISA; assay type: cell-based
Experimental: Adenylyl cyclase activity was quantified by cAMP ELISA (Enzo). […] Cells were stimulated by 10 μM forskolin (Sigma) or DMSO vehicle control for 20 minutes prior to lysis with 0.1 M HCl. Cell lysate was analyzed according to manufacturer's protocol, and normalized to total protein quantified by BCA (Thermo Fisher). All samples and standards were run in duplicate.

MLO-Y4 osteocytes [2] = test: mRNA expression (AC6, IFT88) by quantitative real-time PCR, no flow; assay type: cell-based; settings: for IFT88 mRNA expression in untransfected cells: fenoldopam
MC3T3 osteoblasts = test: Flow-induced paracrine signaling: conditioned media of treated osteocytes on osteoblasts (OPN mRNA); assay type: cell-based; settings: osteocytes treated with fenoldopam 10 μM 16 hours; 12 hrs flow; osteoblasts cultured 24 hours
C3H10T1/2 MSCs = test: Flow-induced paracrine signaling: conditioned media of treated osteocytes on MSCs (OSX mRNA); assay type: cell-based; settings: osteocytes treated with fenoldopam 10 μM 16 hours; MSCs cultured 48 hours in conditioned media
Experimental: Osteocytes were seeded at 2800 cells/cm2 for 72 hours before application of fluid flow. MC3T3 osteoblasts were cultured in MEMα supplemented with 10% FBS and 1% P/S. Osteoblasts were seeded at 2000 cells/cm2 72 hours before receiving conditioned media. C3H10T1/2 MSCs were cultured in DMEM low glucose (Life Technologies) supplemented with 10% FBS and 1% P/S, and seeded at 1100 cells/cm2 72 hours before culture with conditioned media 150. […] Osteocytes were cultured on rectangular flasks (8.2×9.2 cm; 12.5 ml of media) on a rocking platform which oscillated at a frequency of 0.33 Hz with an amplitude of 1.3 cm, supplying 0.08 Pa shear stress for 2, 6, 12, or 24 hours, FIG. 4.2. Shear stress generated by oscillatory fluid flow was calculated as previously performed 153. 12 hours of fluid flow was used in all experiments. Cells were also cultured in static conditions as a no flow control. Conditioned media was collected from osteocytes immediately upon completion of rocking, and used to culture osteoblasts or MSCs for 24 or 48 hours, respectively. […] Gene expression was analyzed by quantitative real-time PCR using primers and probes (Life Technologies) for analysis of osteopontin, OPN (Mm00436767_m1), osterix, OSX (Mm04209856_m1), and GAPDH (4351309). […]

[3] = μCT analysis of non-loaded ulnae; assay type: in vivo, mice; settings: for μCT: normal bone properties / microarchitecture (in words): 7 days, non-loaded ulnar midshaft
Experimental: Non-loaded ulnae were used for μCT analysis. Samples were imaged with a Scanco ViaCT 80 at 10.5 μm isotropic resolution. Images were processed using a Gaussian filter and global threshold to segment bone volumes. Ulnar midshafts were imaged and used to assess cortical bone, while the proximal epiphysis was used to examine ulnar trabecular bone. Cortical bone analysis was performed to determine total area, cortical area, marrow area, bone volume fraction (BV/TV), cortical thickness, moment of inertia (Imax and Imin), and bone mineral density (BMD). Trabecular analyses included BV/TV, connectivity density, trabecular number, trabecular thickness, trabecular spacing, and BMD.

[4] = tested on: Ovariectomized (OVX) mice; test: Load-induced bone formation in ovariectomized (OVX) osteoporotic mice; assay type: in vivo; settings: fenoldopam 20 mg/kg 7 days, compressive ulnar load
Experimental: On the final three days of drug or control injection, animals were also subjected to compressive ulnar load at a peak load of 3 N using a 2 Hz sine wave for 120 cycles, as previously described ([…]. et al. PLoS One 7, (2012); Lee, K. L. et al. FASEB J. 28, 1157-1165 (2014)). Contralateral limbs served as a non-loaded control. 2 days following load, mice were treated with 10 mg/kg calcein (Sigma), and 4 days later 70 mg/kg alizarin (Sigma), with mice being sacrificed 6 days later. Dynamic histomorphometry was performed as previously described, measuring the amount and separation of calcein and alizarin labels to quantify mineralizing surface (rMS/BS), mineral apposition rate (rMAR), and bone formation rate (rBFR/BS) relative to non-loaded controls ([…]. et al. PLoS One 7, (2012); Lee, K. L. et al. FASEB J. 28, 1157-1165 (2014)). Left and right ulnae were dissected and preserved in ethanol. Samples were then infiltrated with methyl methacrylate, and embedded in methyl methacrylate and benzoyl peroxide. Transverse sections of the ulnar midshaft were imaged on a laser scanning confocal microscope (Olympus Fluoview FV1000). Measurements of outer bone perimeter (OP), single label perimeter (SL), double label perimeter (DL), and double label area (DA) were made in ImageJ. The mineralizing surface relative to outer bone surface (MS/BS), mineral apposition rate (MAR), and bone formation rate (BFS/BS) were calculated as: Relative measurements-rMS/BS, rMAR, rBFR/BS-were determined by subtracting non-loaded from loaded ulnae to display differences due to mechanical load. Ovariectomized (OVX) and Sham animals were purchased directly from Jackson Laboratories, with surgery performed at 12 weeks old. […] Dynamic histomorphometry was only performed on OVX animals, while Sham animals were used to confirm osteoporotic phenotype based on μCT analysis.

[5] = 10 μM fenoldopam 16 h, flow 1 hr, fold change flow over no flow
[6] = fenoldopam on AC6 siRNA treated cells
[7] = fenoldopam treatment of osteocytes
[8] = Table 1, ulnar midshaft, Female

- cAMP response to forskolin stimulation (in words) (Adenylyl cyclase; fenoldopam 16 h, then forskolin 20 min): significantly increases
- Cortical area [3, 8]: 0.310 ± 0.003 mm^2
- Cortical thickness [3, 8]: 0.173 ± 0.006 mm
- Imax [3, 8]: 0.029 ± 0.001 mm^4
- Imin [3, 8]: 0.005 ± 0.000 mm^4
- Porosity [3, 8]: 0.131 ± 0.006%
- Total area ([3]; Table 1, ulnar midshaft, Female, fenoldopam 20 mg/kg 7 days): 0.357 ± 0.005 mm^2
- Cortical area ([3]; Table 1, ulnar midshaft, Male): 0.320 ± 0.023 mm^2
- Cortical thickness ([3]; Table 1, ulnar midshaft, Male): 0.169 ± 0.009 mm
- Imax ([3]; Table 1, ulnar midshaft, Male): 0.033 ± 0.007 mm^4
- Imin ([3]; Table 1, ulnar midshaft, Male): 0.004 ± 0.001 mm^4
- Porosity ([3]; Table 1, ulnar midshaft, Male): 0.134 ± 0.003%
- Total area ([3]; Table 1, ulnar midshaft, Male, fenoldopam 20 mg/kg 7 days): 0.370 ± 0.027 mm^2
- Cortical area ([3]; Table 5, cortical, Female): 0.310 ± 0.003 mm^2
- Cortical thickness ([3]; Table 5, cortical, Female): 0.173 ± 0.006 mm
- Imax ([3]; Table 5, cortical, Female): 0.029 ± 0.001 mm^4
- Imin ([3]; Table 5, cortical, Female): 0.005 ± 0.000 mm^4
- Cortical area ([3]; Table 5, cortical, Male): 0.320 ± 0.009 mm^2
- Cortical thickness ([3]; Table 5, cortical, Male): 0.169 ± 0.004 mm
- Imax ([3]; Table 5, cortical, Male): 0.033 ± 0.003 mm^4
- Imin ([3]; Table 5, cortical, Male): 0.004 ± 0.001 mm^4
- Marrow area ([3]; Table 5, cortical, Male): 0.049 ± 0.001 mm^2
- Total area ([3]; Table 5, ulnar midshaft - cortical, non-loaded, Female, 20 mg/kg fenoldopam): 0.357 ± 0.005 mm^2
- Total area ([3]; Table 5, ulnar midshaft - cortical, non-loaded, Male, 20 mg/kg fenoldopam): 0.370 ± 0.010 mm^2
- μCT: normal bone properties / microarchitecture (in words) ([3]; fenoldopam 20 mg/kg): no change; also recorded: no difference
- μCT: normal bone properties / microarchitecture (in words) ([3]; fenoldopam 20 mg/kg, listed as Fenoldopam): did not result in any change
- μCT: normal cortical bone properties including thickness, area, and moment of inertia ([3]; fenoldopam 20 mg/kg, preliminary study, data not shown): no change
SMILES: Oc1ccc(C2CNCCc3c2cc(O)c(O)c3Cl)cc1 (centres unmarked) [fenoldopam, Fenoldopam mesylate]
- elevated flow-induced COX-2 mRNA expression compared to unlengthened controls (MLO-Y4 osteocytes [1]; [5]): 124%±27%
- elevated flow-induced OPN mRNA expression compared to unlengthened controls (MLO-Y4 osteocytes [1]; [5]): 48%±8%
- COX-2 mRNA response to flow (in words) (MLO-Y4 osteocytes [1]): significant increases
- OPN mRNA response to flow (in words) (MLO-Y4 osteocytes [1]): significant increases
- COX-2 mRNA response to flow (in words) (MLO-Y4 osteocytes [1]; listed as Fenoldopam): increased
- OPN mRNA response to flow (in words) (MLO-Y4 osteocytes [1]; listed as Fenoldopam): increased
- AC6 mRNA expression in AC6 siRNA treated cells under flow (MLO-Y4 osteocytes [1]; [6]): not recovered
- flow-induced OPN mRNA expression in AC6 siRNA treated cells (MLO-Y4 osteocytes [1]; [6]): not recovered
- flow stimulated OPN expression in IFT88 siRNA treated cells (in words) (MLO-Y4 osteocytes [1]; fenoldopam on IFT88 siRNA treated cells): able to recover
- recovery of flow-induced OPN response compared to IFT88 siRNA and vehicle treated cells (MLO-Y4 osteocytes [1]; fenoldopam on IFT88 siRNA treated cells, flow 1 h): 52%±1%
- enhancement of forskolin stimulated cAMP response compared to vehicle control (Adenylyl cyclase; 10 μM fenoldopam 16 hours, then 10 μM forskolin 20 minutes): 130%±25%
- IFT88 mRNA expression in untransfected cells (MLO-Y4 osteocytes [2]): no significant effect
- AC6 mRNA expression (in words) (MLO-Y4 osteocytes [2]; [7]): significantly increases
- increase in AC6 mRNA expression (MLO-Y4 osteocytes [2]; [7]): 20%±8%
- IFT88 mRNA expression in untransfected cells (MLO-Y4 osteocytes [2]; listed as Fenoldopam): did not alter
- osteoblast osteogenic gene (osteopontin, OPN) expression after conditioned media from flow-stimulated osteocytes (MC3T3 osteoblasts): increased; also recorded: significantly enhanced
- MSC osteogenic differentiation, as measured by osterix (OSX) expression (C3H10T1/2 MSCs): significantly enhanced
- bone formation rate (rBFR/BS) compared to vehicle control [4]: increased
- mineral apposition rate (rMAR) compared to vehicle control [4]: increased
- mineralizing surface (rMS/BS) compared to vehicle control [4]: increased
